Laboratory results as given in paper PMC7914897, “Cytotoxic Potential of a-Azepano- and 3-Amino-3,4-SeCo-Triterpenoids” (International Journal of Molecular Sciences, 2021).
Read-outs that look alike come from different tables or passages of the source.

Key:
[1] = system: Melanoma subpanel; assay: NCI-60 screen, subpanel; conditions: Homo sapiens; for IC (TGI): 48 h, read-out: TGI MG_MID; for GI50: read-out: GI50 MG_MID; for CC50: read-out: LC50 MG_MID
[2] = system: HCT-116 (Colon cancer); assay: NCI-60 screen (SRB, 48 h); conditions: Homo sapiens; for GI50: HCT-116; for activity at 10 µM / IC (TGI): HCT-116, 48 h; for activity at 10 µM: read-out: Growth % of the Most Sensitive Cell Lines; for IC (TGI): read-out: TGI
[3] = system: MALME-3M (Melanoma); assay: NCI-60 screen (SRB, 48 h); conditions: Homo sapiens
[4] = system: SN12C (Renal cancer); assay: NCI-60 screen (SRB, 48 h); conditions: Homo sapiens; for IC (TGI): 48 h, read-out: TGI
[5] = system: CNS cancer subpanel; assay: NCI-60 screen, subpanel; conditions: Homo sapiens; for IC (TGI): 48 h, read-out: TGI MG_MID; for GI50: read-out: GI50 MG_MID
[6] = system: Prostate cancer subpanel; assay: NCI-60 screen, subpanel; conditions: Homo sapiens; for IC (TGI): 48 h, read-out: TGI MG_MID; for GI50: read-out: GI50 MG_MID
[7] = system: KM12 (Colon cancer); assay: NCI-60 screen (SRB, 48 h); conditions: Homo sapiens; for GI50: KM12; for IC (TGI): KM12, 48 h, read-out: TGI
[8] = system: BT-549 (Breast cancer); assay: NCI-60 screen (SRB, 48 h); format: cell-based; conditions: Homo sapiens; for GI50: BT-549
[9] = system: MCF-7 (breast carcinoma); assay: SRB cytotoxicity assay, 72 h; format: cell-based, human; conditions: Homo sapiens, MCF7; MCF-7, 72 h, cut-off 30 µM; read-out: EC50
Method: (§1) The cytotoxicity of compounds 1–20 was evaluated by means of a colorimetric sulforhodamine B (SRB) assay. For all compounds, the EC50 values were determined for the human tumor cell lines A375 (malignant melanoma), HT29 (colorectal carcinoma), MCF-7 (breast carcinoma), A2780 (ovarian carcinoma), FaDu (hypopharyngeal carcinoma), and NIH 3T3 (non-malignant mouse fibroblasts).
(§2) In short, exponentially growing cells were seeded into 96-well plates on day 0 at the appropriate cell densities to prevent confluence of the cells during the period of experiment. After 24 h, the cells were treated with serial dilutions of the compounds (0–30 µM) for 72 h. The final concentration of DMSO never exceeded 0.5%, which was non-toxic to the cells. After a 72 h treatment, the supernatant medium from the 96-well plates was discarded, and the cells were fixed with 10% TCA. For a thorough fixation, the plates were allowed to rest at 4 °C. After fixation, the cells were washed in a strip washer. The washing was done four times with water using alternate dispensing and aspiration procedures. The plates were then dyed with 100 µL of 0.4% SRB for about 20 min. After dying, the plates were washed with 1% acetic acid to remove the excess of the dye and allowed to air-dry overnight. Tris base solution (200 µL, 10 mM) was added to each well and absorbance was measured at λ = 570 nm (using a 96 well plate reader, Tecan Spectra, Crailsheim, Germany). The percentages of surviving cells relative to untreated controls were determined.

[10] = system: A2780 (ovarian carcinoma); assay: SRB cytotoxicity assay, 72 h; format: cell-based, human; conditions: Homo sapiens; A2780, 72 h, cut-off 30 µM; read-out: EC50
Method: as §1, §2

[11] = system: A375 (malignant melanoma); assay: SRB cytotoxicity assay, 72 h; format: cell-based, human; conditions: Homo sapiens, A-375, 72 h, A375, 72 h, cut-off 30 µM; read-out: EC50
Method: as §1, §2

[12] = system: FaDu (hypopharyngeal carcinoma); assay: SRB cytotoxicity assay, 72 h; format: cell-based, human; conditions: Homo sapiens, cut-off 30 µM, read-out: EC50
Method: as §1, §2

[13] = system: HT29 (colorectal carcinoma); assay: SRB cytotoxicity assay, 72 h; format: cell-based, human; conditions: Homo sapiens, HT-29; HT29, 72 h, cut-off 30 µM; read-out: EC50
Method: as §1, §2

[14] = system: A498 (Renal cancer); assay: NCI-60 screen (SRB, 48 h); conditions: for GI50 / IC (TGI) / CC50: Homo sapiens; for GI50: A498; for IC (TGI): A498, 48 h, read-out: TGI; for CC50: A498, read-out: LC50
[15] = system: HT29 (Colon cancer); assay: NCI-60 screen (SRB, 48 h); conditions: Homo sapiens; for GI50: HT-29
[16] = system: UO-31 (Renal cancer); assay: NCI-60 screen (SRB, 48 h); conditions: Homo sapiens; for GI50: UO-31
[17] = system: NIH 3T3 (non-malignant mouse fibroblasts); assay: SRB cytotoxicity assay, 72 h; format: cell-based; conditions: Mus musculus, NIH3T3; NIH 3T3, 72 h, cut-off 30 µM; read-out: EC50
Method: as §1, §2

[18] = system: MDA-MB-435 (Melanoma); assay: NCI-60 screen (SRB, 48 h); format: cell-based
[19] = system: MCF7 (Breast cancer); assay: NCI-60 screen (SRB, 48 h); conditions: Homo sapiens; for GI50: MCF7; for IC (TGI): MCF7, 48 h, read-out: TGI
[20] = system: SK-MEL-2 (Melanoma); assay: NCI-60 screen (SRB, 48 h); conditions: Homo sapiens; for GI50: SK-MEL-2; for IC (TGI): SK-MEL-2, 48 h, read-out: TGI; for CC50: SK-MEL-2, read-out: LC50
[21] = system: SF-539 (CNS cancer); assay: NCI-60 screen (SRB, 48 h); conditions: Homo sapiens; for GI50: SF-539; for IC (TGI): SF-539, 48 h, read-out: TGI
[22] = system: CCRF-CEM (Leukemia); assay: NCI-60 screen (SRB, 48 h); conditions: Homo sapiens
[23] = system: SF-295 (CNS cancer); assay: NCI-60 screen (SRB, 48 h); conditions: Homo sapiens; for GI50: SF-295; for IC (TGI): SF-295, 48 h, read-out: TGI
[24] = system: NSC lung cancer subpanel; assay: NCI-60 screen, subpanel; conditions: Homo sapiens; for IC (TGI): 48 h, read-out: TGI MG_MID; for GI50: read-out: GI50 MG_MID; for CC50: read-out: LC50 MG_MID

SMILES: C=C(C)[C@@H]1CC[C@]2(C(=O)N[C@H](CO)Cc3ccccc3)CC[C@]3(C)[C@H](CC[C@@H]4[C@@]5(C)CCCNC(C)(C)[C@@H]5CC[C@]43C)[C@@H]12 [Compound 11]
- IC (TGI) [1]: 2870 nM
- GI50 [1]: 1420 nM
- CC50 [1]: 6070 nM
- GI50 [2]: 310 nM
- activity at 10 µM [2]: -94.8%
- IC (TGI) [2]: 1250 nM
- GI50 [3]: 1420 nM
- GI50 [4]: 1810 nM
- IC (TGI) [4]: 3550 nM
- IC (TGI) [5]: 3080 nM
- GI50 [5]: 1510 nM
- CC50 ([5]; read-out: LC50 MG_MID): 5720 nM
- IC (TGI) [6]: 2750 nM
- GI50 [6]: 1320 nM
- GI50 [7]: 1470 nM
- IC (TGI) [7]: 2910 nM
- CC50 ([7]; KM12, read-out: LC50): 5780 nM
- GI50 [8]: 1690 nM
- IC (TGI) ([8]; BT-549, 48 h): 3320 nM
- EC50 [9]: 1170 ± 200 nM
- EC50 [10]: 780 ± 400 nM
- EC50 [11]: 1000 ± 100 nM
- EC50 [12]: 880 ± 100 nM
- EC50 [13]: 1020 ± 30 nM
- Growth % of the Most Sensitive Cell Lines ([14]; A498, 1 dose 10 µM): −97.92%
- GI50 [14]: 1490 nM
- IC (TGI) [14]: 2940 nM
- CC50 [14]: 5810 nM
- GI50 [15]: 240 nM
- IC (TGI) ([15]; HT-29, 48 h, read-out: TGI): 540 nM
- CC50 ([15]; HT-29, read-out: LC50): 1750 nM
- GI50 [16]: 1500 nM
- IC (TGI) ([16]; UO-31, 48 h, read-out: TGI): 2960 nM
- EC50 [17]: 1230 ± 300 nM
- IC (TGI) ([18]; Homo sapiens, MDA-MB-435, 48 h; read-out: TGI): 2360 nM
- GI50 ([18]; Homo sapiens, MDA-MB-435; read-out: GI50): 1100 nM
- GI50 [19]: 490 nM
- IC (TGI) [19]: 2060 nM
- GI50 [20]: 1720 nM
- IC (TGI) [20]: 3180 nM
- CC50 [20]: 5870 nM
- GI50 [21]: 1730 nM
- IC (TGI) [21]: 3190 nM
- GI50 [22]: 250 nM
- IC (TGI) ([22]; 48 h, read-out: TGI): 740 nM
- GI50 [23]: 1670 nM
- IC (TGI) [23]: 3210 nM
- IC (TGI) [24]: 3150 nM
- GI50 [24]: 1520 nM
- CC50 [24]: 6410 nM

SMILES: C[C@H]1[C@H](C)CC[C@]2(C(=O)Nc3ccc4ncccc4c3)CC[C@]3(C)C(=CC[C@@H]4[C@@]5(C)CCCNC(C)(C)[C@@H]5CC[C@]43C)[C@H]12 [Compound 14]
- IC (TGI) [1]: 3320 nM
- GI50 [1]: 1770 nM
- CC50 [1]: 6250 nM
- GI50 [2]: 1600 nM
- activity at 10 µM [2]: -100%
- IC (TGI) [2]: 3110 nM
- CC50 ([2]; HCT-116, read-out: LC50): 6050 nM
- GI50 [3]: 1660 nM
- GI50 [4]: 1730 nM
- IC (TGI) [4]: 3330 nM
- IC (TGI) [5]: 3170 nM
- GI50 [5]: 1670 nM
- IC (TGI) [6]: 3280 nM
- GI50 [6]: 1760 nM
- GI50 [7]: 1890 nM
- IC (TGI) [7]: 3630 nM
- GI50 [8]: 1840 nM
- EC50 [9]: 1640 ± 100 nM
- EC50 [10]: 1800 ± 100 nM
- EC50 [11]: 1570 ± 800 nM
- EC50 [12]: 1790 ± 200 nM
- EC50 [13]: 1550 ± 100 nM
- GI50 [14]: 1560 nM
- IC (TGI) [14]: 2960 nM
- CC50 [14]: 5600 nM
- GI50 [15]: 1590 nM
- GI50 [16]: 1500 nM
- EC50 [17]: 1690 ± 100 nM
- GI50 ([18]; Homo sapiens, MDA-MB-435): 1580 nM
- IC (TGI) ([18]; Homo sapiens, MDA-MB-435, 48 h, read-out: TGI): 3000 nM
- Growth % of the Most Sensitive Cell Lines ([18]; MDA-MB-435, 1 dose 10 µM): −91.82%
- GI50 [19]: 1560 nM
- IC (TGI) [19]: 3250 nM
- GI50 [20]: 1840 nM
- IC (TGI) [20]: 3430 nM
- CC50 [20]: 6420 nM
- GI50 [21]: 1610 nM
- IC (TGI) [21]: 3010 nM
- GI50 [22]: 1670 nM
- GI50 [23]: 1650 nM
- IC (TGI) [23]: 3170 nM
- IC (TGI) [24]: 3360 nM
- GI50 [24]: 1780 nM
- CC50 [24]: 7530 nM
